Measured values from US20050209157A1, “Short bioactive peptides and methods for their use” (priority 2001, published 2005).
Read-outs that look alike come from different tables or passages of the source. No end group written: not given here.

Key:
laminin = assay: Laminin stimulation, ELISA on fibroblast cell lines; format: cell-based
Procedure: (§1) Fibroblast cell lines were cultured under standard conditions and assayed for collagen and laminin using an ELISA system manufactured by Panvera (Madison, Wis.). Antibodies for collagen and laminin manufactured by Takara Shuzo Co., Ltd Japan. […] The other three peptides tested neither stimulated nor inhibited production (i.e. no effect was observed).

in vitro = details: human, WI38 normal lung fibroblast cells, LD50 WI38, WI38 normal lung fibroblast line, MTT, 24 hours with peptide
P. aeruginosa H374 [1] = format: cell-based, Pseudomonas aeruginosa; details: for MIC Cm-comb.: MIC of chloramphenicol with peptide at ¼ MIC; for MIC Nal-comb.: MIC of nalidixic acid with peptide at ¼ MIC; for FIC Index: 0.5 or less = synergy
Summary of the method: (§2)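 Synergy against efflux-mutant strains: two-fold dilutions of nalidixic acid or chloramphenicol tested with peptide held at ¼ of its MIC.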

P. aeruginosa H774 = format: cell-based, Pseudomonas aeruginosa; details: P. aeruginosa H744; nalidixic acid + peptide at ¼ MIC; 0.5 or less = synergy
Summary of the method: as §2

P. aeruginosa = format: cell-based, Pseudomonas aeruginosa; details: P. aeruginosa H744; MIC of nalidixic acid with peptide at ¼ MIC
Summary of the method: as §2

[2] = system: Staphylococcus aureus ATCC 6538; assay: Antimicrobial assay I, MIC by OD measurement; format: cell-based; details: 37° C. for 24 hours, absorbance 620 nm
[3] = system: Pseudomonas aeruginosa ATCC 9027; assay: Antimicrobial assay I, MIC by OD measurement; format: cell-based; details: 37° C. for 24 hours, absorbance 620 nm
P. aeruginosa H374 [4] = format: cell-based, Pseudomonas aeruginosa; details: mean of three; 16 to 20 hours at 35° C.
collagen = assay: Collagen stimulation, ELISA on fibroblast cell lines; format: cell-based
Procedure: as §1

[5] = system: yeast (Saccharomyces cerevisiae); assay: Antimicrobial assay I, yeast assay in RPMI 1640; format: cell-based; details: RPMI 1640 media
E. coli UB1005 = format: cell-based, Escherichia coli; details: mean of three; 16 to 20 hours at 35° C.; in µg/mL
BMKC = assay: Anti-cancer assay, MTT, LD50; format: cell-based; details: BMKC cloned melanoma line, 24 hours with peptide
Text: (§3) Numbers are LD50 values (μg/mL).

SW480 = assay: Anti-cancer assay, MTT, LD50; format: cell-based; details: SW480 colon adenocarcinoma line, 24 hours with peptide
Text: as §3

H1299 = assay: Anti-cancer assay, MTT, LD50; format: cell-based; details: 24 hours with peptide, lung large cell carcinoma
Text: as §3

PC3 = assay: Anti-cancer assay, MTT, LD50; format: cell-based; details: 24 hours with peptide, prostate adenocarcinoma
Text: as §3

MCF7 = assay: Anti-cancer assay, MTT, LD50; format: cell-based; details: MCF7 breast adenocarcinoma line, MTT, 24 hours with peptide
Text: as §3

HeLaS3 = assay: Anti-cancer assay, MTT, LD50; format: cell-based; details: 24 hours with peptide, cervical carcinoma
Text: as §3

WI38 = details: MTT, 24 hours with peptide; normal fibroblast line
S. pneumoniae C719 = assay: Antimicrobial assays II, NCCLS broth microdilution MIC; format: cell-based, Streptococcus pneumoniae; details: mean of three, in µg/mL
S. epidermidis C621 = format: cell-based, Staphylococcus epidermidis; details: mean of three; 16 to 20 hours at 35° C.
S. pneumoniae C718 = assay: Antimicrobial assays II, NCCLS broth microdilution MIC; format: cell-based, Streptococcus pneumoniae; details: mean of three
S. aureus (MRSA) = format: cell-based, Staphylococcus aureus; details: mean of three; 16 to 20 hours at 35° C.
S. pyogenes M76 = assay: Antimicrobial assays II, NCCLS broth microdilution MIC; format: cell-based, Streptococcus pyogenes; details: mean of three; 16 to 20 hours at 35° C.
[6] = chloramphenicol + peptide at ¼ MIC
[7] = nalidixic acid + peptide at ¼ MIC, FIC=0.25+MIC comb/MIC alone

Substance | Laminin stimulation (laminin) [%] | CC50 at 24 h (in vitro) [µg/mL] | MIC Cm-comb. (P. aeruginosa H374 [1]) [µg/mL] | MIC Nal-comb. (P. aeruginosa H374 [1]) [µg/mL] | FIC Index (P. aeruginosa H374 [1]; [6]) | FIC Index (P. aeruginosa H374 [1]; [7]) | FIC Index (P. aeruginosa H774) | MIC Nal-comb. (P. aeruginosa) [µg/mL] | staph6538 (MIC) [2] | paerug9027 (MIC) [3] | P. aeruginosa H374 MIC (P. aeruginosa H374 [4]) [µg/mL] | Collagen stimulation (collagen) [%] | yeast (MIC or MFC) [5] | LD50 BMKC (BMKC) | LD50 SW480 (SW480) | H1299 LD50 (H1299) [µg/mL] | PC3 LD50 (PC3) [µg/mL] | LD50 MCF7 (MCF7) [µg/mL] | HeLaS3 LD50 (HeLaS3) | WI38 LD50 (WI38) [µg/mL] | also measured
MPKWKVFKKIEKVGRNIRNGIVKAGPAIAVLGEAKALG-NH2 [P12, reference compound] | 0 | 950 | 16 | 2500 | 1.25 | 0.75 | 0.75 | 312 | > (> indicates greater than 200 μg/mL) | 100 µg/mL | 8 | 0 | > (> indicates greater than 200 μg/mL) | > (> indicates greater than 1000) | > (> indicates greater than 1000) | 720 | 630 | 540 | > (> indicates greater than 1000) | 950 | E. coli UB1005 MIC (E. coli UB1005): 1
FALKALKKLKKALKKAL-NH2 [P153] | 32 | 130 | 8 | 5000 | 0.75 | 1.25 | 1.25 | 624 | 5 µg/mL | 25 µg/mL |  | 120 | 100 µg/mL | 165 µg/mL | 61 µg/mL | 50 | 97 | 64 | 140 µg/mL | 130 | S. pneumoniae MIC (S. pneumoniae C719): 8; S. epidermidis C621 MIC (S. epidermidis C621): 4 µg/mL; S. pneumoniae MIC (S. pneumoniae C718): 32 µg/mL; S. aureus (MRSA) MIC (S. aureus (MRSA)): 16 µg/mL; S. pyogenes M76 MIC (S. pyogenes M76): 2 µg/mL
FAVGLRAIKRALKKLRRGVRKVAKDL-NH2 [P157, reference compound] |  | 500 | 8 | 2500 | 0.75 | 0.75 | 1.25 | 624 | 200 µg/mL | > (> indicates greater than 200 μg/mL) | 8 |  | > (> indicates greater than 200 μg/mL) | 600 µg/mL | 530 µg/mL | 315 | 375 | 240 | > (> indicates greater than 1000) | 500 | S. pneumoniae MIC (S. pneumoniae C719): 16; S. epidermidis C621 MIC (S. epidermidis C621): 4 µg/mL; S. pneumoniae MIC (S. pneumoniae C718): 128 µg/mL; E. coli UB1005 MIC (E. coli UB1005): 8; S. aureus (MRSA) MIC (S. aureus (MRSA)): 32 µg/mL; S. pyogenes M76 MIC (S. pyogenes M76): 8 µg/mL
